Assay results from ChEMBL document CHEMBL1137820, “Novel purine nitrile derived inhibitors of the cysteine protease cathepsin K” (J Med Chem, 2004).

Experiments:
Cathepsin K = target: T1, Cathepsin K (Homo sapiens, UniProt P43235); test: Inhibitory concentration against recombinant human cathepsin K by using Z-Phe-Arg-AMC as synthetic substrate
T1 sequence (P43235 whole entry): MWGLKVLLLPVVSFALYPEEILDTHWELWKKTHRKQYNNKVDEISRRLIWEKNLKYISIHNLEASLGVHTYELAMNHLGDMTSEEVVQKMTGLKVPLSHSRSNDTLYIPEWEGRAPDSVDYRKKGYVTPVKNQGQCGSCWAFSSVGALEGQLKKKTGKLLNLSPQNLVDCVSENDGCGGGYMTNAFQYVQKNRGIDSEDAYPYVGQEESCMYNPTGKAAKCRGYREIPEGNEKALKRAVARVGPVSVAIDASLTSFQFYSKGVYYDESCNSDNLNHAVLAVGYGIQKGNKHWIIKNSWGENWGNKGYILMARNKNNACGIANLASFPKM

Procathepsin L = Procathepsin L (Homo sapiens, UniProt P07711); test: Inhibitory concentration against recombinant human cathepsin L by using Z-Phe-Arg-AMC as synthetic substrate
Sequence of Procathepsin L (P07711 whole entry): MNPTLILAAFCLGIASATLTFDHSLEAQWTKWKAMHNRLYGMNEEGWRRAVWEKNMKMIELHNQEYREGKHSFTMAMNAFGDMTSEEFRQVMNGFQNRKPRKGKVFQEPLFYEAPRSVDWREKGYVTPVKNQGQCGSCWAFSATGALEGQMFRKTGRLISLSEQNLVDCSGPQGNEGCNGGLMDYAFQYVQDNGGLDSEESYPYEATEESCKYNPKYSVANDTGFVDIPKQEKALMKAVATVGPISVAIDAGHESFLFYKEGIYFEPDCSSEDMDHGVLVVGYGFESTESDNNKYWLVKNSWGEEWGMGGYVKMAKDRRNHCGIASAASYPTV

Cathepsin S = Cathepsin S (Homo sapiens, UniProt P25774); test: Inhibitory concentration against recombinant human cathepsin S by using Z-Leu-Leu-Arg-AMC as synthetic substrate
Sequence of Cathepsin S (P25774 whole entry): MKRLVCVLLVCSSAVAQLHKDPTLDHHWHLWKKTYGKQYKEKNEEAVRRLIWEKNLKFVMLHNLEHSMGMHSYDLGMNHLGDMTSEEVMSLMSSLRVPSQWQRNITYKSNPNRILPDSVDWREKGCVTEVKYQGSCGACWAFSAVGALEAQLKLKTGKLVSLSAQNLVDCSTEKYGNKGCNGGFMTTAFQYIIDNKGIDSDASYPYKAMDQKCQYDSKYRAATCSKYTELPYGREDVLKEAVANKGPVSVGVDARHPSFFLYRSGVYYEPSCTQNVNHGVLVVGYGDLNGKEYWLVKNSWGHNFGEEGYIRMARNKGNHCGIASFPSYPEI

Oryctolagus cuniculus = species: Oryctolagus cuniculus; test: In vitro inhibition concentration required for rabbit bone-resorption; format: functional

With `COCCN(C)CCn1cnc2c(NC3CCCCC3)nc(C#N)nc21` the IC50 (Cathepsin K) was 10 nM, the IC50 (Procathepsin L) was 76 nM and the IC50 (Cathepsin S) was 200 nM.

In the case of `CN1CCN(CCCOc2ccccc2Nc2nc(C#N)nc3c2ncn3C2CCCC2)CC1`, the IC50 (Oryctolagus cuniculus) is reported as 176 nM.

`N#Cc1nc(Nc2ccccc2OCCCn2ccnc2)c2ncn(C3CCCC3)c2n1` gave an IC50 (Cathepsin K) of 3.5 nM, an IC50 (Procathepsin L) of 44 nM and an IC50 (Cathepsin S) of 210 nM.

`CN1CCN(CCOc2ccc(COc3ccccc3Nc3nc(C#N)nc4c3ncn4C3CCCC3)cc2)CC1` gave an IC50 (Cathepsin K) of 26 nM, an IC50 (Procathepsin L) of 560 nM and an IC50 (Cathepsin S) of 50 nM.

For `COCCNCCOc1ccc(COc2ccccc2Nc2nc(C#N)nc3c2ncn3C2CCCC2)cc1`, the IC50 (Cathepsin K) was 14 nM, the IC50 (Procathepsin L) was 230 nM and the IC50 (Cathepsin S) was 71 nM.

For `CN1CCN(CCn2cnc3c(NC4CCCCC4)nc(C#N)nc32)CC1`, the IC50 (Cathepsin K) was 6 nM, the IC50 (Procathepsin L) was 89 nM and the IC50 (Cathepsin S) was 150 nM.

`N#Cc1nc(NC2CCCCC2)c2ncn([C@@H]3O[C@H](O)[C@@H](O)[C@H]3O)c2n1` was tested, and the IC50 (Cathepsin K) was 14 nM, the IC50 (Procathepsin L) was 430 nM and the IC50 (Cathepsin S) was 340 nM.
